Measured values as given in patent publication US20190133968A1, “Applications of benzophenones in preparation of drug” (SHANXI MEDICAL UNIVERSITY, priority 2016, published 2019).

Tested on: chronic nephritis rats
Experiment: chronic nephritis rat model (passive Heymann nephritis)
Type: in vivo, SD rats
Conditions: gavage; for IL-1α / IL-1β / IL-6 / IL-10 / Scr: serum
Experimental: The solid dispersions are prepared through a solvent method, comprising steps of: respectively precisely weighing LM49, PVPK30 and tween80 with a weight ratio of 1:5:1, and A8, PVPK30 and tween80 with a weight ratio of 1:4:1; dissolving with appropriate absolute ethyl alcohol, continuously stirring, and uniformly mixing; placing on the water bath at 60° C., evaporating and removing the absolute ethyl alcohol, and obtaining a viscous material; placing in the freezer at −20° C., and freezing for 2 hours; taking out from the freezer, then placing in the vacuum drying oven, and drying for 24 hours; after becoming embrittlement, smashing and sieving with a sieve of 80 meshes, and then placing in the dryer for storage.
The passive Heymann nephritis is the classic model for researching the human chronic nephrosis. Thus, the present invention researches the effects of the two disclosed compounds on preventing the chronic nephritis with the model.
Ninety male SD rats having a weight of 180-220 g are selected, wherein: ten rats are selected as a blank group, and the remaining rats are used for preparing the rat Heymann nephritis models according to the method (disclosed in Journal of Proteomics, 2012, 75(3): pages 3866-3876). The successively established model rats are randomly divided into the model group, the positive control group (dexamethasone with a concentration of 0.1 mg/kg), the LM49 solid dispersion low-dose group (with the drug concentration of 3 mg/kg), the LM49 solid dispersion medium-dose group (with the drug concentration of 9 mg/kg), the LM49 solid dispersion high-dose group (with the drug concentration of 27 mg/kg), the A8 solid dispersion low-dose group (with the drug concentration of 3 mg/kg), the A8 solid dispersion medium-dose group (with the drug concentration of 9 mg/kg), and the A8 solid dispersion high-dose group (with the drug concentration of 27 mg/kg).
The rats of the blank group and the model group are administrated with the normal saline of same volume, and the rats of the other groups are respectively administrated with the drugs of the corresponding dose, by gavage, every day from model establishment for four weeks.
The blood of the rats of all groups is drawn at the second week and the fourth week from model establishment and 24-hour urine thereof is collected, for respectively measuring the contents of the urinary albumin, serum creatinine (Scr) in the serum, BUN, IL-1α, IL-1β, IL-6 and IL-10.
The data is represented in mean±(standard deviation) (x±s) and processed with the SPSS 19.0 statistical software. The one-way analysis of variance (ANOVA) is adopted for comparison among the groups, and then the LSD-Test is adopted for pairwise comparison. The differences of P<0.05 and P<0.01 are statistically significant.

[1] = high-dose 27 mg/kg, Fourth week
[2] = high-dose 27 mg/kg, Second week
[3] = medium-dose 9 mg/kg, Fourth week
[4] = medium-dose 9 mg/kg, Second week

SMILES | 24-hour urinary protein quantitation [1] | 24-hour urinary protein quantitation [2] | IL-1α [1] | IL-1β [1] | IL-6 [1] | IL-10 [1] | Scr [1] | IL-1α [2] | IL-1β [2] | IL-6 [2] | IL-10 [2] | Scr [2] | 24-hour urinary protein quantitation (low-dose 3 mg/kg, Fourth week) | 24-hour urinary protein quantitation (low-dose 3 mg/kg, Second week) | IL-1α (low-dose 3 mg/kg, Fourth week) | IL-1β (low-dose 3 mg/kg, Fourth week) | IL-6 (low-dose 3 mg/kg, Fourth week) | IL-10 (low-dose 3 mg/kg, Fourth week) | Scr (low-dose 3 mg/kg, Fourth week) | IL-1α (low-dose 3 mg/kg, Second week) | further results
O=C(c1cc(OC(=O)N2CCOCC2)c(OC(=O)N2CCOCC2)cc1Cl)c1cc(Cl)ccc1OC(=O)N1CCOCC1 [A8, 4,5,2′-tris(4-morpholinemethanoyl)-2,5′-dichlorobenzophenone] | 8.26 ± 1.9^ΔΔ## mg/24 h | 14.77 ± 3.6^ΔΔ mg/24 h | 7.33 ± 2.14^ΔΔ pg/ml | 99.44 ± 39.74^ΔΔ# pg/ml | 56.95 ± 20.44^ΔΔ pg/ml | 40.21 ± 13.01 pg/mL | 44.55 ± 10.7 µmol/L | 10.69 ± 3.76 pg/mL | 198.20 ± 90.01^Δ pg/ml | 78.66 ± 35.92^ΔΔ pg/ml | 60.25 ± 22.34 pg/mL | 41.04 ± 10.1 µmol/L | 30.22 ± 6.8 mg/24 h | 32.98 ± 7.7 mg/24 h | 12.65 ± 3.14 pg/mL | 261.33 ± 76.55^ pg/ml | 89.33 ± 29.89^Δ pg/ml | 70.66 ± 32.28 pg/mL | 47.36 ± 13.1 µmol/L | 14.01 ± 3.99 pg/mL | IL-1β (low-dose 3 mg/kg, Second week): 310.21 ± 70.01 pg/mL; IL-6 (low-dose 3 mg/kg, Second week): 111.79 ± 36.28 pg/mL; IL-10 (low-dose 3 mg/kg, Second week): 89.33 ± 36.77 pg/mL; Scr (low-dose 3 mg/kg, Second week): 44.33 ± 11.1 µmol/L; 24-hour urinary protein quantitation [3]: 15.01 ± 4.4^ΔΔ mg/24 h; 24-hour urinary protein quantitation [4]: 20.02 ± 5.2^Δ mg/24 h; IL-1α [3]: 10.10 ± 4.01 pg/mL; IL-1β [3]: 192.56 ± 64.69^Δ pg/ml; IL-6 [3]: 73.57 ± 25.60^ΔΔ pg/ml; IL-10 [3]: 61.48 ± 24.53 pg/mL; Scr [3]: 45.99 ± 14.4 µmol/L; IL-1α [4]: 12.63 ± 4.56 pg/mL; IL-1β [4]: 277.65 ± 60.39 pg/mL; IL-6 [4]: 90.31 ± 30.41^Δ pg/ml; IL-10 [4]: 74.55 ± 32.12 pg/mL; Scr [4]: 45.66 ± 12.2 µmol/L
O=C(c1cc(Br)ccc1O)c1cc(O)c(O)cc1Br [LM49, 2,5′-dibromo-4,5,2′-trihydroxyldiphenylmethanone] | 9.55 ± 2.8^ΔΔ## mg/24 h | 18.11 ± 3.2^Δ mg/24 h | 8.42 ± 2.76^ΔΔ pg/ml | 200.44 ± 59.31^Δ pg/ml | 77.03 ± 36.53^ΔΔ pg/ml | 31.42 ± 10.09 pg/mL | 46.97 ± 11.6 µmol/L | 11.44 ± 3.95 pg/mL | 227.21 ± 95.41^Δ pg/ml | 91.11 ± 40.63^ΔΔ pg/ml | 55.75 ± 17.61 pg/mL | 41.42 ± 10.6 µmol/L | 22.18 ± 6.3 mg/24 h | 34.43 ± 6.6 mg/24 h | 13.98 ± 3.77 pg/mL | 380.39 ± 80.66^ pg/ml | 130.12 ± 45.19 pg/mL | 60.01 ± 26.61 pg/mL | 47.78 ± 11.2 µmol/L | 14.53 ± 4.76 pg/mL | IL-1β (low-dose 3 mg/kg, Second week): 388.25 ± 72.31 pg/mL; IL-6 (low-dose 3 mg/kg, Second week): 131.23 ± 41.33 pg/mL; IL-10 (low-dose 3 mg/kg, Second week): 80.09 ± 33.11 pg/mL; Scr (low-dose 3 mg/kg, Second week): 49.44 ± 11.1 µmol/L; 24-hour urinary protein quantitation [3]: 17.65 ± 5.7^ΔΔ mg/24 h; 24-hour urinary protein quantitation [4]: 24.99 ± 5.0 mg/24 h; IL-1α [3]: 12.15 ± 4.76 pg/mL; IL-1β [3]: 297.55 ± 94.66^Δ pg/ml; IL-6 [3]: 90.66 ± 40.03^Δ pg/ml; IL-10 [3]: 51.51 ± 18.09 pg/mL; Scr [3]: 46.57 ± 10.9 µmol/L; IL-1α [4]: 13.62 ± 4.87 pg/mL; IL-1β [4]: 351.11 ± 100.32 pg/mL; IL-6 [4]: 100.15 ± 32.51 pg/mL; IL-10 [4]: 61.31 ± 23.89 pg/mL; Scr [4]: 45.88 ± 12.2 µmol/L
